How the values were obtained:
Assay in all cases: CCK-8 cell viability assay, anti-tumor model with wireless self-powered photodynamic tablet
Format in all cases: cell-based
Details in all cases: 10 μM IKE, PDT groups: 8 μM Ce6 6 h, 20 min 660 nm light, CCK-8 after 24 hours
[1] = test system: human lung cancer cells A549
Protocol: (§1) This embodiment provides a comprehensive account of constructing an anti-tumor model utilizing the wireless self-powered photodynamic tablet (8), using human lung cancer cells A549 and H1299, as well as mouse lung cancer cells LLC. The experimental procedure involved seeding 8,000 cells per well in a 96-well plate and allowing them to adhere for 24 hours. The cells were divided into four groups: control group (Ctrl), ferroptosis inducer (IKE) group, photodynamic therapy (PDT) group, and combined treatment of IKE and PDT (IKE+PDT) group. The culture medium was then replaced accordingly: the PDT and IKE+PDT groups received 100 μL of serum-free medium containing 8 μM photosensitizer Ce6, while the Ctrl and IKE groups were replaced with serum-free medium. Following this, the cells were incubated for 6 hours under light avoidance conditions (i.e., in the substantial absence of visible light). Subsequently, the culture medium was replaced again: the IKE and IKE+PDT groups received fresh complete medium containing 10 μM IKE, while the Ctrl and PDT groups received complete medium. The PDT and IKE+PDT groups underwent 20 minutes of photodynamic therapy (e.g., with 660 nm light from the photodynamic tablet). After 24 hours of incubation, a cell viability assay was conducted using the CCK-8 reagent kit. Each experiment was repeated three times, and the data were subjected to statistical analysis.

[2] = test system: human lung cancer cells H1299
Protocol: as §1

[3] = test system: mouse lung cancer cells LLC
Protocol: as §1

With `CC(C)Oc1ccc(C(=O)Cn2ccnc2)cc1-n1c(CN2CCN(C(=O)COc3ccc(Cl)cc3)CC2)nc2ccccc2c1=O` [IKE] the “decrease in cell viability compared to the control group” value (shortened to “decrease in cell viability”) [1] was 22.4%, the “decrease in cell viability” value [2] was 26.0% and the “decrease in cell viability” value [3] was 30.3%.

From patent US12083355B1, “Preparation of photodynamic therapy tablet and method for construction and application of anti-tumor model for enhanced cancer treatment” (Sichuan Cancer Hospital, priority 2023, dated 2024)
